Measurements reported in patent US9265253B2, “Use of macrocyclic picolinamides as fungicides” (DOW AGROSCIENCES LLC, priority 2013, dated 2016).
Where two headings read alike, the source gives them in different places.

Columns and labels:
Type in all cases: in vivo
Leptosphaeria nodorum = assay: Wheat Glume Blotch (LEPTNO) disease control; details: Parastagonospora nodorum, topical, 24 h, 1 Day Protectant, read-out: Disease Control LEPTNO 1 DP
Experimental: Technical grades of materials were dissolved in acetone, which were then mixed with nine volumes of water containing 110 ppm Triton X-100. The fungicide solutions were applied onto wheat seedlings using an automated booth sprayer to run-off. All sprayed plants were allowed to air dry prior to further handling. All fungicides were evaluated using the aforementioned method for their activity vs. all target diseases. Wheat leaf blotch and brown rust activity were also evaluated using track spray applications, in which case the fungicides were formulated as EC formulations, containing 0.1% Trycol 5941 in the spray solutions. Wheat plants (variety Yuma) were grown from seed in a greenhouse in 50% mineral soil/50% soil-less Metro mix until the first leaf was fully emerged, with 7-10 seedlings per pot. These plants were inoculated with an aqueous spore suspension of Septoria tritici either prior to or after fungicide treatments. After inoculation the plants were kept in 100% relative humidity (one day in a dark dew chamber followed by two to three days in a lighted dew chamber at 20° C.) to permit spores to germinate and infect the leaf. The plants were then transferred to a greenhouse set at 20° C. for disease to develop. When disease symptoms were fully expressed on the 1st leaves of untreated plants, infection levels were assessed on a scale of 0 to 100 percent disease severity. Percent disease control was calculated using the ratio of disease severity on treated plants relative to untreated plants. Wheat plants (variety Yuma) were grown from seed in a greenhouse in 50% mineral soil/50% soil-less Metro mix until the first leaf was fully emerged, with 7-10 seedlings per pot. These plants were inoculated with an aqueous spore suspension of Leptosphaeria nodorum 24 hr after fungicide treatments. After inoculation the plants were kept in 100% relative humidity (one day in a dark dew chamber followed by two days in a lighted dew chamber at 20° C.) to permit spores to germinate and infect the leaf. The plants were then transferred to a greenhouse set at 20° C. for disease to develop. Fungicide formulation, application and disease assessment followed the procedures as described in the Example A.

Cercospora beticola = assay: Leaf Spot of Sugar Beets (CERCBE) disease control; details: Cercospora beticola, topical, 24 h, 1 Day Protectant, sugar beet, read-out: Disease Control CERCBE 1 DP
Experimental: Technical grades of materials were dissolved in acetone, which were then mixed with nine volumes of water containing 110 ppm Triton X-100. The fungicide solutions were applied onto wheat seedlings using an automated booth sprayer to run-off. All sprayed plants were allowed to air dry prior to further handling. All fungicides were evaluated using the aforementioned method for their activity vs. all target diseases. Wheat leaf blotch and brown rust activity were also evaluated using track spray applications, in which case the fungicides were formulated as EC formulations, containing 0.1% Trycol 5941 in the spray solutions. Wheat plants (variety Yuma) were grown from seed in a greenhouse in 50% mineral soil/50% soil-less Metro mix until the first leaf was fully emerged, with 7-10 seedlings per pot. These plants were inoculated with an aqueous spore suspension of Septoria tritici either prior to or after fungicide treatments. After inoculation the plants were kept in 100% relative humidity (one day in a dark dew chamber followed by two to three days in a lighted dew chamber at 20° C.) to permit spores to germinate and infect the leaf. The plants were then transferred to a greenhouse set at 20° C. for disease to develop. When disease symptoms were fully expressed on the 1st leaves of untreated plants, infection levels were assessed on a scale of 0 to 100 percent disease severity. Percent disease control was calculated using the ratio of disease severity on treated plants relative to untreated plants. Sugar beet plants (variety HH88) were grown in soil-less Metro mix and trimmed regularly to maintain a uniform plant size prior to test. Plants were inoculated with a spore suspension 24 hr after fungicide treatments. Inoculated plants were kept in a dew chamber at 22° C. for 48 hr then incubated in a greenhouse set at 24° C. under a clear plastic hood with bottom ventilation until disease symptoms were fully expressed. Fungicide formulation, application and disease assessment on the sprayed leaves followed the procedures as described in the Example A.

Phakopsora pachyrhizi = assay: Asian Soybean Rust (PHAKPA) disease control; details: for pest or weed control at 25 ppm: Phakopsora pachyrhizi, topical
Experimental: Technical grades of materials were dissolved in acetone, which were then mixed with nine volumes of water containing 0.011% Tween 20. The fungicide solutions were applied onto soybean seedlings using an automated booth sprayer to run-off. All sprayed plants were allowed to air dry prior to further handling.
Soybean plants (variety Williams 82) were grown in soil-less Metro mix, with one plant per pot. Two weeks old seedlings were used for testing. Plants were inoculated either 3 days prior to or 1 day after fungicide treatments. Plants were incubated for 24 h in a dark dew room at 22° C. and 100% RH then transferred to a growth room at 23° C. for disease to develop. Disease severity was assessed on the sprayed leaves.

Rhyncosporium secalis = assay: Barley Scald (RHYNSE) disease control; details: Hordeum vulgare, 24 h, 1 Day Protectant, read-out: Disease Control RHYNSE 1 DP
Experimental: Technical grades of materials were dissolved in acetone, which were then mixed with nine volumes of water containing 110 ppm Triton X-100. The fungicide solutions were applied onto wheat seedlings using an automated booth sprayer to run-off. All sprayed plants were allowed to air dry prior to further handling. All fungicides were evaluated using the aforementioned method for their activity vs. all target diseases. Wheat leaf blotch and brown rust activity were also evaluated using track spray applications, in which case the fungicides were formulated as EC formulations, containing 0.1% Trycol 5941 in the spray solutions. Wheat plants (variety Yuma) were grown from seed in a greenhouse in 50% mineral soil/50% soil-less Metro mix until the first leaf was fully emerged, with 7-10 seedlings per pot. These plants were inoculated with an aqueous spore suspension of Septoria tritici either prior to or after fungicide treatments. After inoculation the plants were kept in 100% relative humidity (one day in a dark dew chamber followed by two to three days in a lighted dew chamber at 20° C.) to permit spores to germinate and infect the leaf. The plants were then transferred to a greenhouse set at 20° C. for disease to develop. When disease symptoms were fully expressed on the 1st leaves of untreated plants, infection levels were assessed on a scale of 0 to 100 percent disease severity. Percent disease control was calculated using the ratio of disease severity on treated plants relative to untreated plants. Barley seedlings (variety Harrington) were propagated in soil-less Metro mix, with each pot having 8 to 12 plants, and used in the test when first leaf was fully emerged. Test plants were inoculated by an aqueous spore suspension of Rhyncosporium secalis 24 hr after fungicide treatments. After inoculation the plants were kept in a dew room at 20° C. with 100% relative humidity for 48 hr. The plants were then transferred to a greenhouse set at 20° C. for disease to develop. Fungicide formulation, application and disease assessment on the sprayed leaves followed the procedures as described in the Example A.

[1] = tested on: Magnaporthe grisea; Anamorph: Pyricularia oryzae; assay: whole plant or invertebrate; details: Pyricularia oryzae, topical, 24 h, read-out: Disease Control PYRIOR 1 DP
[2] = 24 h, 1 Day Protectant, read-out: Disease Control PHAKPA 1DP
[3] = 72 h, 3 Day Curative, read-out: Disease Control PHAKPA 3DC

Structure (SMILES) | pest or weed control at 100 ppm (Leptosphaeria nodorum) [%] | pest or weed control at 100 ppm (Cercospora beticola) [%] | pest or weed control at 25 ppm (Phakopsora pachyrhizi; [2]) [%] | pest or weed control at 25 ppm (Phakopsora pachyrhizi; [3]) [%] | pest or weed control at 100 ppm (Rhyncosporium secalis) [%] | pest or weed control at 100 ppm [1] [%] | Disease Control PHAKPA 3DC (Phakopsora pachyrhizi; 25 ppm, 3 Day Curative)
COc1ccnc(C(=O)N[C@H]2CCC[C@H](CC3CCCC3)[C@@H](OCC3CC3)[C@H](C)OC2=O)c1OCOC(C)=O [Compound F117] | 80 to 100 | 80 to 100 | 80 to 100 | 80 to 100 | 80 to 100 | 80 to 100 | –
CCOCC(=O)OCOc1c(OC)ccnc1C(=O)N[C@H]1CCC[C@H](CCF)[C@@H](OCC(C)C)[C@H](C)OC1=O [Compound F181] | 80 to 100 | 0 to 80 | 80 to 100 | 80 to 100 | 0 to 80 | 80 to 100 | –
CCCO[C@@H]1[C@@H](Cc2ccccc2)CCC[C@H](NC(=O)c2nccc(OC)c2OCOC(C)=O)C(=O)O[C@H]1C [Compound F109] | 80 to 100 | 80 to 100 | 80 to 100 | 0 to 80 | 80 to 100 | 80 to 100 | –
COCC[C@H]1CCC[C@H](NC(=O)c2nccc(OC)c2OC(C)=O)C(=O)O[C@@H](C)[C@@H]1Oc1ccccc1 [Compound F78] | 80 to 100 | 80 to 100 | 80 to 100 | 80 to 100 | 80 to 100 | 80 to 100 | –
COc1ccnc(C(=O)N[C@H]2CCC[C@H](Cc3ccccc3)[C@@H](OCC(C)C)[C@H](C)OC2=O)c1OC(C)=O [Compound F70] | 80 to 100 | 80 to 100 | 80 to 100 | 0 to 80 | 80 to 100 | 80 to 100 | –
COc1ccnc(C(=O)N[C@H]2CCC[C@H](CCF)[C@@H](OCC(C)C)[C@H](C)OC2=O)c1OCOC(C)=O [Compound F128, ((2-(((3S,7R,8R,9S)-7-(2-fluoroethyl)-8-isobutoxy-9-methyl-2-oxooxonan-3-yl)carbamoyl)-4-methoxypyridin-3-yl)oxy)methyl acetate] | 80 to 100 | 80 to 100 | 80 to 100 | 80 to 100 | 0 to 80 | 80 to 100 | –
COCC[C@H]1CCC[C@H](NC(=O)c2nccc(OC)c2OCOC(C)=O)C(=O)O[C@@H](C)[C@@H]1Oc1ccccc1 [Compound F130] | 80 to 100 | 0 to 80 | 80 to 100 | 80 to 100 | 80 to 100 | 80 to 100 | –
CCCO[C@@H]1[C@@H](CCC(C)C)CCC[C@H](NC(=O)c2nccc(OC)c2OCOC(=O)COCC)C(=O)O[C@H]1C [Compound F161] | 80 to 100 | 80 to 100 | 80 to 100 | 80 to 100 | 80 to 100 | 80 to 100 | –
COc1ccnc(C(=O)N[C@H]2CCC[C@H](Cc3ccc(F)cc3)[C@@H](OCC3CC3)[C@H](C)OC2=O)c1OCOC(C)=O [Compound F96] | 80 to 100 | 80 to 100 | 80 to 100 | – | 80 to 100 | 80 to 100 | B (More than 0-Less than 80)
CCOCC(=O)OCOc1c(OC)ccnc1C(=O)N[C@H]1CCC[C@H](Cc2ccccc2)[C@@H](OCC(C)C)[C@H](C)OC1=O [Compound F172] | 80 to 100 | 80 to 100 | 80 to 100 | 0 to 80 | 80 to 100 | 80 to 100 | –
COc1ccnc(C(=O)N[C@H]2CCC[C@H](Cc3ccccc3)[C@@H](OCC(C)C)[C@H](C)OC2=O)c1OCOC(C)=O [Compound F106] | 80 to 100 | 80 to 100 | 80 to 100 | 0 to 80 | 80 to 100 | 80 to 100 | –
C=C[C@H]1CCC[C@H](NC(=O)c2nccc(OC)c2OC(C)=O)C(=O)O[C@@H](C)[C@@H]1Oc1ccccc1 [Compound F86] | 80 to 100 | 80 to 100 | 80 to 100 | 0 to 80 | 80 to 100 | 80 to 100 | –
COc1ccnc(C(=O)N[C@H]2CCC[C@H](Cc3ccc(F)cc3)[C@@H](OCC3CC3)[C@H](C)OC2=O)c1OC(C)=O [Compound F67] | 80 to 100 | 80 to 100 | 80 to 100 | 0 to 80 | 80 to 100 | 80 to 100 | –
CCO[C@@H]1[C@@H](Cc2ccccc2)CCC[C@H](NC(=O)c2nccc(OC)c2OC(C)=O)C(=O)O[C@H]1C [Compound F87] | 80 to 100 | 80 to 100 | – | – | 80 to 100 | 80 to 100 | –
CCCO[C@@H]1[C@@H](Cc2ccccc2)CCC[C@H](NC(=O)c2nccc(OC)c2OC(C)=O)C(=O)O[C@H]1C [Compound F88] | 80 to 100 | 80 to 100 | – | – | 80 to 100 | 80 to 100 | –
